Experimental data published in ChEMBL document CHEMBL1255183, “Role of the phenolic hydroxyl group in the biological activities of simplified analogue of aplysiatoxin with antiproliferative activity” (Bioorg Med Chem Lett, 2010).

What was measured:
[1] = molecular target: T1, Protein kinase C delta type (Homo sapiens, UniProt Q05655); test: Inhibition of [3H]PDBu binding to PKC delta C1B peptide
[2] = molecular target: T1, Protein kinase C delta type; test: Inhibition of [3H]PDBu binding to PKC delta C1A peptide
[3] = molecular target: Protein kinase C gamma type (Homo sapiens, UniProt P05129); test: Inhibition of [3H]PDBu binding to PKC gamma C1A peptide
[4] = molecular target: T2, Protein kinase C epsilon type (Homo sapiens, UniProt Q02156); test: Inhibition of [3H]PDBu binding to PKCepsilon C1B peptide
T2 sequence (Q02156 whole entry): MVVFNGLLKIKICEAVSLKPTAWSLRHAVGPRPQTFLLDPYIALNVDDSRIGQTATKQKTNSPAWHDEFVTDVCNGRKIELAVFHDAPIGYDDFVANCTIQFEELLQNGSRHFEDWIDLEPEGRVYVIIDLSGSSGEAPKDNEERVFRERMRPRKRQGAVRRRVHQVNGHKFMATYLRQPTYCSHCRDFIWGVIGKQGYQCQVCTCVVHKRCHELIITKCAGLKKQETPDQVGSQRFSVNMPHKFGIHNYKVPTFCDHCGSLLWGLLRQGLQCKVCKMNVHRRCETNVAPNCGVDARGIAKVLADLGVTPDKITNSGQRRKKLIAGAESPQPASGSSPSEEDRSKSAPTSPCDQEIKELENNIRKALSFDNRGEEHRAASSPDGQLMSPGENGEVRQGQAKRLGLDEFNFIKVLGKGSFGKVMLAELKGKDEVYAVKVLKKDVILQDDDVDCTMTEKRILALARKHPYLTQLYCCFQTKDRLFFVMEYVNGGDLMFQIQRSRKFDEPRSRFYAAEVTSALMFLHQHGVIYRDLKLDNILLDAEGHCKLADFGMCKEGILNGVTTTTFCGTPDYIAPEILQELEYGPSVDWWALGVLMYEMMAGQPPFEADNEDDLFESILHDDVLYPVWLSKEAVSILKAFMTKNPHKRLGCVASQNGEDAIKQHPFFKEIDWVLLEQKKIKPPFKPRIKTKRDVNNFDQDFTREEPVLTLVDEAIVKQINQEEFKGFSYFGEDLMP

[5] = molecular target: Protein kinase C theta type (Homo sapiens, UniProt Q04759); test: Inhibition of [3H]PDBu binding to PKCtheta C1B peptide
[6] = molecular target: Protein kinase C eta type (Homo sapiens, UniProt P24723); test: Inhibition of [3H]PDBu binding to PKCeta C1B peptide
[7] = molecular target: Protein kinase C beta type (Homo sapiens, UniProt P05771); test: Inhibition of [3H]PDBu binding to PKC beta C1A peptide
[8] = molecular target: Protein kinase C alpha type (Homo sapiens, UniProt P17252); test: Inhibition of [3H]PDBu binding to PKC alpha C1A peptide
U-251 = test: Cytotoxicity against human U251 cells; type: functional
NCI-H522 = test: Cytotoxicity against human NCI-H522 cells; type: functional
LOX IMVI = test: Cytotoxicity against human LOXIMVI cells; type: functional
Raji [9] = test: Induction of EBA-early antigen production in human Raji cells at 10^-7 M; type: cell-based; conditions: human gammaherpesvirus 4
MCF7 = test: Cytotoxicity against human MCF7 cells; type: functional
MKN-74 = test: Cytotoxicity against human MKN74 cells; type: functional
A549 = test: Cytotoxicity against human A549 cells; type: functional
DMS-273 = test: Cytotoxicity against human DMS273 cells; type: functional
SF-268 = test: Cytotoxicity against human SF268 cells; type: functional
St-4 = test: Cytotoxicity against human St-4 cells; type: functional
NCI-H23 = test: Cytotoxicity against human NCI-H23 cells; type: functional
SNB-78 = test: Cytotoxicity against human SNB78 cells; type: functional
HT-29 = test: Cytotoxicity against human HT-29 cells; type: functional
Raji [10] = test: Inhibition of TPA-induced EBA-early antigen production in human Raji cells at 10^-7 M; type: cell-based; parameters: scale not given: the % may be the effect or the level left; conditions: human gammaherpesvirus 4
OVCAR-4 = test: Cytotoxicity against human OVCAR4 cells; type: functional
[11] = Cytotoxicity against human Raji cells assessed as viability at 1 uM in presence of TPA; type: cell-based; conditions: read-out: Activity
[12] = Cytotoxicity against human MKN1 cells; type: functional; conditions: MKN-1
OVCAR-8 = test: Cytotoxicity against human OVCAR8 cells; type: functional
[13] = Cytotoxicity against human Raji cells assessed as viability at 10^-7 M; type: cell-based; conditions: read-out: Activity
MKN-28 = test: Cytotoxicity against human MKN28 cells; type: functional
HCT-116 = test: Cytotoxicity against human HCT116 cells; type: functional
ACHN = test: Cytotoxicity against human ACHN cells; type: functional
[14] = Cytotoxicity against human BSY1 cells; type: functional; conditions: BSY-1
OVCAR-3 = test: Cytotoxicity against human OVCAR-3 cells; type: functional
SF-295 = test: Cytotoxicity against human SF295 cells; type: functional
SNB-75 = test: Cytotoxicity against human SNB75 cells; type: functional
Raji [15] = test: Induction of EBA-early antigen production in human Raji cells at 1 uM; type: cell-based; conditions: human gammaherpesvirus 4
MKN-7 = test: Cytotoxicity against human MKN7 cells; type: functional
SK-OV-3 = test: Cytotoxicity against human SKOV3 cells; type: functional
MDA-MB-231 = test: Cytotoxicity against human MDA-MB-231 cells; type: functional
MKN-45 = test: Cytotoxicity against human MKN45 cells; type: functional
HCT-15 = test: Cytotoxicity against human HCT15 cells; type: functional
OVCAR-5 = test: Cytotoxicity against human OVCAR5 cells; type: functional
HCC 2998 = test: Cytotoxicity against human HCC2998 cells; type: functional
Raji [16] = test: Inhibition of TPA-induced EBA-early antigen production in human Raji cells at 1 uM; type: cell-based; parameters: scale not given: the % may be the effect or the level left; conditions: human gammaherpesvirus 4
NCI-H226 = test: Cytotoxicity against human NCI-H226 cells; type: functional
[17] = Cytotoxicity against human Raji cells assessed as viability at 10^-7 M in presence of TPA; type: cell-based; conditions: read-out: Activity
SF-539 = test: Cytotoxicity against human SF539 cells; type: functional
DU-145 = test: Cytotoxicity against human DU145 cells; type: functional
[18] = Cytotoxicity against human HBC4 cells; type: functional
PC-3 = test: Cytotoxicity against human PC3 cells; type: functional
DMS-114 = test: Cytotoxicity against human DMS114 cells; type: functional
[19] = Cytotoxicity against human RXF631L cells; type: functional; conditions: RXF 631
[20] = Cytotoxicity against human Raji cells assessed as viability at 1 uM; type: cell-based; conditions: read-out: Activity
NCI-H460 = test: Cytotoxicity against human NCI-H460 cells; type: functional

Sequence of Protein kinase C theta type (Q04759 whole entry): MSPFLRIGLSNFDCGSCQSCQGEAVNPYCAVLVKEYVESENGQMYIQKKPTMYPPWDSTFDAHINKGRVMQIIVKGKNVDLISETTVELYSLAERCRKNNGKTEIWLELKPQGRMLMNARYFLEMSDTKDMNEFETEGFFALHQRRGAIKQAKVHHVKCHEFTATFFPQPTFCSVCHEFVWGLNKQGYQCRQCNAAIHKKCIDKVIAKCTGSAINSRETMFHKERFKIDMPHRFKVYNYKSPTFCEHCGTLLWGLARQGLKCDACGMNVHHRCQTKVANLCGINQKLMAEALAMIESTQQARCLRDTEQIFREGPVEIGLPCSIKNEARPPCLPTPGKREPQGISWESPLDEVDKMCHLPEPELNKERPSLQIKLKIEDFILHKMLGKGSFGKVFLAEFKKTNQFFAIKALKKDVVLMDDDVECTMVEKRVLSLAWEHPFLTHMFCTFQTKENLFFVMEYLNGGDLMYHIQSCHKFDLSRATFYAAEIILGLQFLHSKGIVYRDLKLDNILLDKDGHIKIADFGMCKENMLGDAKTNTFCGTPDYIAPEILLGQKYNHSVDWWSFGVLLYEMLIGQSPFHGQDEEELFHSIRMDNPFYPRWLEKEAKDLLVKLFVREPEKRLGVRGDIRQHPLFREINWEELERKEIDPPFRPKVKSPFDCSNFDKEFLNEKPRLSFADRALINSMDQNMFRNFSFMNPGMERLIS
T1 sequence (Q05655 whole entry): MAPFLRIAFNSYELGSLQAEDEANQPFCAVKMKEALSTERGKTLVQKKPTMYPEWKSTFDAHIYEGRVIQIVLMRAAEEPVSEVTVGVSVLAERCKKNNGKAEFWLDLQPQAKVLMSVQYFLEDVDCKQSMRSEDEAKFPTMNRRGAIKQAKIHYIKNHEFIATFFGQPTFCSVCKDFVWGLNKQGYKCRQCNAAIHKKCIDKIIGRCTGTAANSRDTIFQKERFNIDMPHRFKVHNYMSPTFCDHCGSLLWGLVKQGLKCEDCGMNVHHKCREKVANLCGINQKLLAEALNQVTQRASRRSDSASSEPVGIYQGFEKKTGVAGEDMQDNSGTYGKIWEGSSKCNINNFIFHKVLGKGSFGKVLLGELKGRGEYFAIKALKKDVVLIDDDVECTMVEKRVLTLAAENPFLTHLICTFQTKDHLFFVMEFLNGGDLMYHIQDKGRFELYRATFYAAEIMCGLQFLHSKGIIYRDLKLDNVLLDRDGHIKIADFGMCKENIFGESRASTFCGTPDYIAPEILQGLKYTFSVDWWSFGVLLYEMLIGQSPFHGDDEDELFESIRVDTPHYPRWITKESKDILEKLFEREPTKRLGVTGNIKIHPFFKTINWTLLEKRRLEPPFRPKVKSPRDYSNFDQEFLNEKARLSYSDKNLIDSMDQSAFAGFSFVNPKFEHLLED
Sequence of Protein kinase C beta type (P05771 whole entry): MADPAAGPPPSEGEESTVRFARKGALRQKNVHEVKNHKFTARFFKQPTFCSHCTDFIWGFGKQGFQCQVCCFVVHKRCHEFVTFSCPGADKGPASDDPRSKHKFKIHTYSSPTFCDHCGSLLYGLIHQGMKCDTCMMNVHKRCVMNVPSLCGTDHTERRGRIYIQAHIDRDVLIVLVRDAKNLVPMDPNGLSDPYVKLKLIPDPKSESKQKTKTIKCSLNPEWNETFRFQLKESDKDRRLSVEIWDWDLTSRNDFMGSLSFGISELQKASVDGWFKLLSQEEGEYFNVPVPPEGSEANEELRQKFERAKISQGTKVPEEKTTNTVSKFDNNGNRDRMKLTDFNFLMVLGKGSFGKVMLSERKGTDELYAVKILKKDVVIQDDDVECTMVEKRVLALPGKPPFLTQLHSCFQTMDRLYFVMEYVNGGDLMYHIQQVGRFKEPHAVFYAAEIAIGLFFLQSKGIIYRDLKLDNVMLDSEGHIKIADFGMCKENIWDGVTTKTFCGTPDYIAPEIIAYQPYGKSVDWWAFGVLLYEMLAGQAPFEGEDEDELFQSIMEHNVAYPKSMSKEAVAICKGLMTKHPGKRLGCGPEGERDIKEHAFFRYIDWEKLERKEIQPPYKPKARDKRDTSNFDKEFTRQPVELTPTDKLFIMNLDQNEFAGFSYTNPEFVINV
Sequence of Protein kinase C eta type (P24723 whole entry): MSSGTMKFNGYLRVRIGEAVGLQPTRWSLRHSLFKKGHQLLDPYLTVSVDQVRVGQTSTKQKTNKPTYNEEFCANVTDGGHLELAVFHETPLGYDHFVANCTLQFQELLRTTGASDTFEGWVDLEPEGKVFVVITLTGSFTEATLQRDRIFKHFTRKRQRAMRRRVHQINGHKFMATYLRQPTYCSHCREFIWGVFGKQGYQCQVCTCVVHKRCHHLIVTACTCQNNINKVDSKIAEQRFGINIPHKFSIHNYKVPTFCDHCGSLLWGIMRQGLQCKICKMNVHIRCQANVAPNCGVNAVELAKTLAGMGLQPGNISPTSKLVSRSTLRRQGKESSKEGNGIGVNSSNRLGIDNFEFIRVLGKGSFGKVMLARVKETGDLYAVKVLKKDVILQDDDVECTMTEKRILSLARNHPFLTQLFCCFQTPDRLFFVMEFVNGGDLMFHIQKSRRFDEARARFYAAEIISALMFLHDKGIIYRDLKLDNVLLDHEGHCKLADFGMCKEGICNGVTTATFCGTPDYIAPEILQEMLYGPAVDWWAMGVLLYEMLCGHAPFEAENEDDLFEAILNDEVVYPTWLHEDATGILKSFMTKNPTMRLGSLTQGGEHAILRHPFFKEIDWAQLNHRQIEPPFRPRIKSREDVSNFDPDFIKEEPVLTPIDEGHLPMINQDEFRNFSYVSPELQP

With `O=C1C[C@H](CO)OC(=O)C[C@H]2CCC[C@]3(C[C@@H](C[C@@H](CCCCc4ccccc4)O3)O1)O2` the Ki [1] was 0.17 µM, the Ki [2] was 6.8 µM and the Ki [3] was 1.6 µM. The Ki [4] was 0.82 µM, the Ki [5] was 0.17 µM and the Ki [6] was 0.18 µM. The Ki [7] was 3.5 µM and the Ki [8] was 2.4 µM.
Work on `CC1(C)CC[C@@H]2CC(=O)O[C@@H](CO)CC(=O)O[C@@H]3C[C@@H](CCCCc4ccccc4)O[C@@]1(C3)O2` yielded a GI50 (U-251) of 12.3 µM, a GI50 (NCI-H522) of 13.2 µM and a GI50 (LOX IMVI) of 6.76 µM. The Activity (Raji [9]) was 9.7%, the GI50 (MCF7) was 16.2 µM and the GI50 (MKN-74) was 14.8 µM. For the same molecule, the GI50 (A549) was 3.24 µM, the Ki [1] was 0.0098 µM and the GI50 (DMS-273) was 10.5 µM. It also gave a GI50 (SF-268) of 12.9 µM, a GI50 (St-4) of 0.891 µM and a GI50 (NCI-H23) of 11.2 µM. The Ki [2] was 0.13 µM, the GI50 (SNB-78) was 15.8 µM and the GI50 (HT-29) was 11.2 µM. For the same molecule, the Activity (Raji [10]) was 15.2%, the GI50 (OVCAR-4) was 15.1 µM and the viability at 1 µM [11] was 60%. For the same molecule, the GI50 [12] was 12.6 µM, the GI50 (OVCAR-8) was 17.8 µM and the viability at 0.1 µM [13] was 60%. It also gave a GI50 (MKN-28) of 16.6 µM, a Ki [3] of 0.08 µM and a GI50 (HCT-116) of 12.3 µM. The GI50 (ACHN) was 10 µM, the Ki [4] was 0.037 µM and the GI50 [14] was 6.76 µM. The GI50 (OVCAR-3) was 13.5 µM, the GI50 (SF-295) was 7.24 µM and the GI50 (SNB-75) was 12 µM. The Activity (Raji [15]) was 10.5%, the Ki [5] was 0.0081 µM and the GI50 (MKN-7) was 11.5 µM. It also gave a GI50 (SK-OV-3) of 17 µM, a GI50 (MDA-MB-231) of 2.14 µM and a GI50 (MKN-45) of 0.813 µM. The Ki [6] was 0.012 µM, the GI50 (HCT-15) was 16.6 µM and the GI50 (OVCAR-5) was 11 µM. The GI50 (HCC 2998) was 2.95 µM, the Ki [7] was 0.14 µM and the Activity (Raji [16]) was 13.1%. It also gave a GI50 (NCI-H226) of 11.5 µM, a Ki [8] of 0.12 µM and a viability at 0.1 µM [17] of 60%. The GI50 (SF-539) was 10.5 µM, the GI50 (DU-145) was 12 µM and the GI50 [18] was 0.525 µM. For the same molecule, the GI50 (PC-3) was 5.5 µM, the GI50 (DMS-114) was 14.1 µM and the GI50 [19] was 13.8 µM. For the same molecule, the viability at 1 µM [20] was 60% and the GI50 (NCI-H460) was 1.48 µM.
In the case of `CO[C@@H](CC[C@H](C)[C@H]1O[C@@]23C[C@H](OC(=O)C[C@H]([C@@H](C)O)OC(=O)C[C@](O)(O2)[C@H](C)CC3(C)C)[C@@H]1C)c1cc(O)ccc1Br` [APLYSIATOXIN], the Activity (Raji [9]) is reported as 18.4%, the Ki [1] is reported as 0.00041 µM and the Ki [2] is reported as 0.012 µM. For the same molecule, the Activity (Raji [10]) was 17.8%, the viability at 1 µM [11] was 40% and the viability at 0.1 µM [13] was 50%. The Ki [3] was 0.00063 µM, the Ki [4] was 0.0013 µM and the Activity (Raji [15]) was 20.1%. For the same molecule, the Ki [5] was 0.00016 µM, the Ki [6] was 0.00036 µM and the Ki [7] was 0.00045 µM. For the same molecule, the Activity (Raji [16]) was 19.4%, the Ki [8] was 0.0004 µM and the viability at 0.1 µM [17] was 50%. For the same molecule, the viability at 1 µM [20] was 40%.
